Data as given in EP4782453A1 (Beyang Therapeutics Co., Ltd., priority 2023, dated 2025).

Molecular target: T1, Menin-MLL (Homo sapiens, UniProt O00255)
T1 construct: His-Menin (M1-L615 end); purchased BIORTUS BP9210
T1 sequence (O00255 1-615 isoform O00255-1): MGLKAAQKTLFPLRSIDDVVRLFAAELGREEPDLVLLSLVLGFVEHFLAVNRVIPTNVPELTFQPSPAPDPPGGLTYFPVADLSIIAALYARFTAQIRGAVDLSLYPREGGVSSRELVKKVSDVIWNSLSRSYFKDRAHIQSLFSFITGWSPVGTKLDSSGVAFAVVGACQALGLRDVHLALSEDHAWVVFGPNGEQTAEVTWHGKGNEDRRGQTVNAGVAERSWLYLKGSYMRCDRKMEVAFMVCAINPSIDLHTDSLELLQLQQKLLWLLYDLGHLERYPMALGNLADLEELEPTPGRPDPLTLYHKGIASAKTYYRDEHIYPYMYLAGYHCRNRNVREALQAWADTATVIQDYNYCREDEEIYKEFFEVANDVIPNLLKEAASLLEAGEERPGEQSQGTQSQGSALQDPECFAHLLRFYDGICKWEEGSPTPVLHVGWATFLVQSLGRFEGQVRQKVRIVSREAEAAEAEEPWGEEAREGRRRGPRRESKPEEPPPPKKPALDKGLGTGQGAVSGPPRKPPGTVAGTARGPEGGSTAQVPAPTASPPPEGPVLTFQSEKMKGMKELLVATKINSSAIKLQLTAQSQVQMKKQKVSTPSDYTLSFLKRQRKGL
Experiment: Inhibitory activity against Menin-MLL binding (fluorescence polarization)
Conditions: Menin-MLL IC50, fluorescence polarization; 150 nM His-Menin, 15 nM FITC-MLL; 25°C for 60 min
Method: • His-Menin (M1-L615 end), purchased from BIORTUS, Catalog Number: BP9210; and • FITC-MLL4-43, purchased from GenScript, Catalog Number: C491HFF190-3/PE1324.
In a 10 µL reaction solution (20 mM HEPES, pH 7.5, 50 mM NaCl, 1 mM DTT, 0.01% BSA) containing any compound from the examples, 150 nM His-Menin was added to a 384-well plate (Corning, Model: 4514). Each concentration was set up in duplicate wells. After centrifugation at 1000 RPM for 1 min, the plate was incubated at 25°C for 15 min. Then, 15 nM […] (20 mM HEPES, pH 7.5, 50 mM NaCl, 1 mM DTT, 0.01% BSA) was added to a 384-well plate. After centrifugation at 1000 RPM for 1 min, the reaction proceeded at 25°C for 60 min. Changes in fluorescence polarization were measured using a plate reader (PerkinElmer, Envision 2104). Based on the measured signals, the binding inhibition rate of the compound at each concentration was calculated, and the IC50 (half-maximal inhibitory concentration) of the compound was determined using statistical analysis software GraphPad Prism (GraphPad Software, Inc.) by means of a nonlinear fitting formula: 4-Parameter Logistic Model or Sigmoidal Dose-Response Model: Y = Bottom + (Top−Bottom)/(1 + 10^((LogIC50−X) × Hill Slope)), [formula] in which X indicates the logarithm of compound concentration, Y indicates a fluorescence polarization mP value, and Top and Bottom indicate the maximum and minimum readouts of fluorescence polarization mP values. Table 1: Inhibitory Activity of Compounds Against Menin-MLL Binding

| SMILES | IC50 [nM] |
| --- | --- |
| CCN(C(=O)c1cc(F)ccc1-c1cc(C2CCN(C[C@H]3CC[C@H](NS(=O)(=O)CC)CC3)C2)cn2c(C3CC3)ncc12)C(C)C (stereo partly drawn) [Compound 69, 2-[3-cyclopropyl-6-(1-{[(1r,4r)-4-ethanesulfonamidocyclohexyl]methyl}pyrrolidin-3-yl)imidazo[1,5-a]pyridin-8-yl]-N-ethyl-5-fluoro-N-(isopropyl)benzamide] | 222 |
| CCN(C(=O)c1cc(F)ccc1-c1cc(C2CCN(C[C@H]3CC[C@H](NS(=O)(=O)CC)CC3)CC2)nn2c(C)ncc12)C(C)C [Example 136, N-ethyl-5-fluoro-2-[7-methyl-2-(1-{[(1r,4r)-4-ethanesulfonamidocyclohexyl]methyl}piperidin-4-yl)imidazo[1,5-b]pyridazin-4-yl]-N-(isopropyl)benzamide] | 129 |
| CCC(=O)N(c1cc(F)ccc1-c1cc(N2CCN(C(=O)C3NC4CCC3CC4)CC2)cn2c(C)ncc12)C(C)C [Example 77, N-[5-fluoro-2-(3-methyl-6-{4-[(1R,3S,4S)-2-azabicyclo[2.2.2]octan-3-carbonyl]piperazin-1-yl}imidazo[1,5-a]pyridin-8-yl)phenyl]-N-(isopropyl)propionamide] | 100 |
| CC[C@@H](C)[C@H](NC)C(=O)N1CC(c2cc(-c3ccc(F)cc3C(=O)N(CC)C(C)C)c3c(F)nc(C)n3c2)C1 [Example 318] | 39 |

Same assay, conditions: fluorescence polarization; 150 nM His-Menin, 15 nM FITC-MLL; 25°C for 60 min; read-out: Menin-MLL IC50

| SMILES | IC50 [nM] |
| --- | --- |
| CCS(=O)(=O)N[C@@H]1CC[C@@H](CN2CC(c3cc(-c4ccc(F)cc4C(=O)N(CC(F)F)C(C)C)c4cnn(C)c4c3)C2)OC1 [Example 152, N-(2,2-difluoroethyl)-2-[6-(1-{[(2S,5R)-5-ethanesulfonamidooxacyclohexan-2-yl]methyl}azacyclobutan-3-yl)-1-methyl-1H-indazol-4-yl]-5-fluoro-N-(isopropyl)benzamide] | 74.5 |
| CCN(C(=O)c1cc(F)ccc1-c1cc(C2CN(C(C[C@H](O)CO)C(C)C)C2)cn2c(C)ncc12)C(C)C (stereo partly drawn) [Example 437, 2-(6-{1-[(5S)-5,6-dihydroxyl-2-methylhexan-3-yl]azacyclobutan-3-yl}-3-methylimidazo[1,5-a]pyridin-8-yl)-N-ethyl-5-fluoro-N-(isopropyl)benzamide] | 12 |
| CCCC(=O)N1CCC(C(C)N2CC(c3cc(-c4ccc(F)cc4C(=O)N4CCOC[C@H]4C)c4cnc(C)n4c3)C2)CC1 (stereo partly drawn) [Example 320] | 12 |
| CCN(C(=O)c1cc(F)ccc1-c1cc(N2CCN(C(=O)C3NCCC3c3ccccc3)CC2)cn2c(C)nc(Cl)c12)C(C)C (stereo not drawn) [Example 127] | 73.5 |
| CCN(C(=O)c1cc(F)ccc1-c1cc(C2CCN(C(=O)[C@H]3N[C@@H]4CC[C@H]3C4)C2)cc2c1cnn2C)C(C)C (stereo partly drawn) [Example 31, 2-(6-{1-[(1R,3S,4S)-2-azabicyclo[2.2.1]heptan-3-carbonyl]pyrrolidin-3-yl}-1-methyl-1H-indazol-4-yl)-N-ethyl-5-fluoro-N-(isopropyl)benzamide] | 275 |

More lines, now with the values ahead:

| IC50 [nM] | SMILES |
| --- | --- |
| 9 | CCN(C(=O)c1cc(F)ccc1-c1cc(C2CN([C@@H](C)C3CCN(C(C)=O)CC3)C2)cn2c(C)ncc12)C(C)C [Example 281-1] |
| 38.5 | Cc1nc(F)c2c(-c3ccc(F)cc3C(=O)N3CCOC[C@H]3C)cc(C3CN([C@H](CN4CCN(C(=O)OC(C)(C)C)CC4)C(C)C)C3)cn12 [Example 366-2, 4-[(2S)-2-[3-(1-fluoro-8-{4-fluoro-2-[(3R)-3-methylmorpholin-4-carbonyl]phenyl}-3-methylimidazo[1,5-a]pyridin-6-yl)azacyclobutan-1-yl]-3-methylbutyl]piperazin-1-tert-butyl carboxylate] |
| 15.5 | CC(=O)N1CCC([C@H](C(C)C)N2CC(c3cc(-c4ccc(F)cc4C(=O)N4CCOC[C@H]4C)c4c(F)nc(C)n4c3)C2)CC1 [Example 357-1, 1-{4-[(1S)-1-[3-(1-fluoro-8-{4-fluoro-2-[(3R)-3-methylmorpholin-4-carbonyl]phenyl}-3-methylimidazo[1,5-a]pyridin-6-yl)azacyclobutan-1-yl]-2-methylpropyl]piperidin-1-yl}ethan-1-one] |
